Measured values reported in publication PMC8588511, “Chromane Derivatives from Underground Parts of Iris tenuifolia and Their In Vitro Antimicrobial, Cytotoxicity and Antiproliferative Evaluation” (Molecules, 2021).
Like-named read-outs stand apart in the source and are kept apart here.

Columns and labels:
[1] = cytotoxicity assay (methylene blue); assay type: cell-based, human; conditions: human, HeLa, 72 h, read-out: Cytotoxicity CC50 (CI 95%)
Protocol: (§1) In this assay, K-562 (DSM ACC 10), THP-1 (DSM ACC 16), and HeLa (DSM ACC 57) were maintained in Roswell Park Memorial Institute (RPMI) 1640 medium (Cambrex 12-167F) while HUVEC (ATCC CRL-1730) and A549 (DSM ACC 107) were cultured in Dulbecco’s Modified Eagle’s Medium (DMEM) (Cambrex 12-614F). Cells that were grown in the appropriate cell culture medium were supplemented with 10 mL/L ultraglutamine 1 (Cambrex 17-605E/U1), 550 µL/L (50 mg/mL) gentamicin sulfate (Cambrex 17-518Z), and 10% heat inactivated fetal bovine serum (GIBCO Life Technologies 10270-106) at 37 °C. The tested compounds were dissolved in DMSO, and the cells were seeded in 96-well plates at a density of 1 × 10^4 cells/well. As for the antiproliferative effect of the compounds, the cells were incubated for 72 h, and GI50 values were evaluated to be defined as the concentration causing 50% inhibition of proliferation compared to the untreated control. With regard to the cytotoxic assay, HeLa cells were pre-incubated for 48 h without the test compounds. Then, the cells were exposed with different concentrations of compounds and incubated for 72 h. After that, the adherent HeLa cells were fixed by glutaraldehyde and stained with a 0.05% solutions of methylene blue (SERVA 29198) for 15 min. CC50 was evaluated to be defined as the concentration required for the death of 50% of the cell monolayer as compared to control groups. Under our experimental conditions, the optical density measured from the CellTiter-Blue reagent and methylene blue assay is proportional to the number of viable cells. In this experiment, absorbances were measured at 570 nm against the reference wavelength of 600 nm (CellTiter-Blue assay) and at 660 nm (methylene blue assay). Doxorubicin (Adriamycin®) and imatinib (Gleevec®) were used as positive controls for HUVEC, K-562, and HeLa cells. A repeat determination has been conducted in all experiments, and four replicates were assayed. The calculations of the different values of GI50 and CC50 were performed with software Magellan version 3.00 (Tecan Trading AG, Maennedorf, Switzerland).

[2] = test system: human acute monocytic leukemia cells (THP-1); assay: antiproliferation assay (CellTiter-Blue); assay type: cell-based
Protocol: as §1

[3] = test system: human umbilical vein endothelial cells (HUVEC); assay: antiproliferation assay (CellTiter-Blue); assay type: cell-based; conditions: Homo sapiens, 72 h, read-out: Antiproliferative Effect, GI50 (CI 95%)
Protocol: as §1

[4] = test system: human chronic myeloid leukemia cells (K-562); assay: antiproliferation assay (CellTiter-Blue); assay type: cell-based; conditions: for GI50: Homo sapiens, read-out: Antiproliferative Effect, GI50 (CI 95%)
Protocol: as §1

[5] = test system: human lung carcinoma cells (A549); assay: antiproliferation assay (CellTiter-Blue); assay type: cell-based
Protocol: as §1

[6] = test system: Pseudomonas aeruginosa (K799/61 B9); assay: agar diffusion antimicrobial assay; assay type: cell-based; conditions: Pseudomonas aeruginosa (K799/61 B9); 50 μL of 1 mg/mL in DMSO, 18 h; ciprofloxacin 5 µg/mL
Protocol: (§2) Compounds 1, 2, 3, 5, 9, and 10 were tested for their antimicrobial activities against S. aureus (JMRC:STI 10760), B. subtilis (JMRC:STI 10880), S. aureus MRSA (JMRC: ST 33793) E. faecalis VRE (JMRC: ST 33700), E. coli (JMRC:ST 33699), P. aeruginosa (JMRC:ST 33771), P. aeruginosa (JMRC:ST 33772), M. vaccae (JMRC:STI 10670), S. salmonicolor (JMRC:ST 35974), C. albicans (JMRC:STI 25000), and P. notatum (JMRC:STI 50164)) using agar diffusion assay as previously published. Strains were obtained from the Jena Microbial Resource Collection (JMRC). The bacteria were cultivated on standard I nutrient agar in Petri dishes at 37 °C. Antifungal bioassays were conducted at 30 °C using the basidiomycetous yeast S. salmonicolor and the filamentous ascomycete P. notatum, which were cultivated on malt agar, and the ascomycetous yeast C. albicans, which was cultivated on yeast morphology agar. After inoculation of the test organisms, a disc (9 mm in diameter) was removed from the center of the Petri dish and 50 μL of the test solution (1 mg/mL in DMSO) was added to the cavity. After 18 h of incubation, the inhibiting areola were measured and documented as diameters in mm. Ciprofloxacin (5 µg/mL in deionized water) and amphotericin B (10 µg/mL in DMSO/MeOH 1:1) were used as reference substances against bacterial and fungal strains, respectively.

[7] = test system: Staphylococcus aureus (MRSA 134/94 R9); assay: agar diffusion antimicrobial assay; assay type: cell-based; conditions: 50 μL of 1 mg/mL in DMSO, 18 h, ciprofloxacin 5 µg/mL
Protocol: as §2

[8] = test system: Pseudomonas aeruginosa (SG137 B7); assay: agar diffusion antimicrobial assay; assay type: cell-based; conditions: 50 μL of 1 mg/mL in DMSO, 18 h, ciprofloxacin 5 µg/mL
Protocol: as §2

[9] = test system: Enterococcus faecalis (VRE 1528 R10); assay: agar diffusion antimicrobial assay; assay type: cell-based; conditions: for zone of inhibition at 1000 µg/mL: Enterococcus faecalis (VRE 1528 R10), 50 μL of 1 mg/mL in DMSO, 18 h, ciprofloxacin 5 µg/mL, read-out: Inhibition Zone of Test Microorganism; for antibacterial activity in words: Enterococcus faecalis VRE, agar diffusion
Protocol: as §2

[10] = test system: Bacillus subtilis (6633 B1); assay: agar diffusion antimicrobial assay; assay type: cell-based; conditions: for zone of inhibition at 1000 µg/mL: Bacillus subtilis (6633 B1), 50 μL of 1 mg/mL in DMSO, 18 h, ciprofloxacin 5 µg/mL, read-out: Inhibition Zone of Test Microorganism
Protocol: as §2

[11] = test system: Mycobacterium vaccae (10670 M4); assay: agar diffusion antimicrobial assay; assay type: cell-based; conditions: for antibacterial activity in words: Mycobacterium vaccae, agar diffusion, compared to ciprofloxacin; for zone of inhibition at 1000 µg/mL: Mycolicibacterium vaccae, Mycobacterium vaccae (10670 M4), 50 μL of 1 mg/mL in DMSO, 18 h, ciprofloxacin 5 µg/mL, read-out: Inhibition Zone of Test Microorganism
Protocol: as §2

[12] = test system: three fungi and eight bacterial strains; assay: agar diffusion assay, whole panel; assay type: cell-based; conditions: eleven microorganisms
Protocol: as §2

[13] = test system: HUVEC, K-562, THP-1, A549, and HeLa cell lines; assay: antiproliferative and cytotoxicity assays, all applied cell lines; assay type: cell-based
Protocol: The tested compounds were dissolved in DMSO, and the cells were seeded in 96-well plates at a density of 1 × 10^4 cells/well. […] With regard to the cytotoxic assay, HeLa cells were pre-incubated for 48 h without the test compounds. Then, the cells were exposed with different concentrations of compounds and incubated for 72 h. […] Under our experimental conditions, the optical density measured from the CellTiter-Blue reagent and methylene blue assay is proportional to the number of viable cells. In this experiment, absorbances were measured at 570 nm against the reference wavelength of 600 nm (CellTiter-Blue assay) and at 660 nm (methylene blue assay). […] A repeat determination has been conducted in all experiments, and four replicates were assayed. The calculations of the different values of GI50 and CC50 were performed with software Magellan version 3.00 (Tecan Trading AG, Maennedorf, Switzerland).

[14] = Homo sapiens, THP-1, 72 h; read-out: Antiproliferative Effect, GI50 (CI 95%)
[15] = Homo sapiens, A549, 72 h; read-out: Antiproliferative Effect, GI50 (CI 95%)

Row | SMILES | CC50 at 72 h ([1]; HeLa cells (DSM ACC 57)) [µM] | GI50 [2, 14] [µM] | GI50 [3] [µM] | GI50 ([4]; K562, K-562, 72 h) [µM] | GI50 [5, 15] [µM] | Inhibition Zone of Test Microorganism [6] | Inhibition Zone of Test Microorganism [7] | Inhibition Zone of Test Microorganism [8] | zone of inhibition at 1000 µg/mL [9] [mm] | antibacterial activity in words [9] | antiproliferative / cytotoxic effect in words [13] | other results
1 | O=C1C=CCCC(O)C2CC(=O)c3c(O)cc(cc3O2)OC2OC(CO1)C(O)C(O)C2O (stereo not drawn) [Compound 1, Moniristenulide] | > 100 | > 100 | > 100 | > 100 | > 100 | - | - | - | 13 | selective activity |  | 
2 | COc1c2c(cc3c1C1CC(O3)c3ccccc3O1)OCO2 (stereo not drawn) [Compound 2, 5-Methoxy-6,7-methylenedioxy-4-O-2′-cycloflavan] | 42.6 | 29.2 | 35.2 | 31.5 | > 100 | - | - | - | 14 | demonstrated activity |  | zone of inhibition at 1000 µg/mL [10]: 12 mm; antibacterial activity in words ([10]; Bacillus subtilis, agar diffusion, compared to ciprofloxacin): demonstrated activity; antibacterial activity in words [11]: demonstrated activity; zone of inhibition at 1000 µg/mL [11]: 17 mm
3 | O=C1C[C@@H](c2cccc(O)c2O)Oc2cc(O)cc(O)c21 [Compound 3, (2S)-5,7,2′,3′-Tetrahydroxyflavanone] | > 100 | > 100 | > 100 | 32.3 | > 100 | - | - | - | 17 | highest antibacterial activity |  | antiproliferative activity in words ([4]; K-562): selective antiproliferative inhibition effect; antimicrobial activity over the panel in words [12]: most active; zone of inhibition at 1000 µg/mL [10]: 12 mm; antibacterial activity in words [11]: highest antibacterial activity; zone of inhibition at 1000 µg/mL [11]: 23 mm
4 | O=C1CC(c2ccccc2O)Oc2cc3c(c(O)c21)OCO3 (stereo not drawn) [Compound 4, 5,2′-Dihydroxy-6,7-methylenedioxyflavanone] | > 100 | 16 | 73.3 | 48.7 | 81 |  |  |  |  |  |  | 
5 | COc1cc(O)c2c(c1)OC(c1cccc(O)c1O)CC2=O (stereo not drawn) [Compound 6, 5,2′,3′-Trihydroxy-7-methoxyflavanone] | > 100 | 16.9 | 68.2 | 56 | 70.9 |  |  |  |  |  |  | 
6 | COc1cc(O)c2c(c1)OC(c1cccc(O)c1OC)C(O)C2=O (stereo not drawn) [Compound 7, 3,5,3′-Trihydroxy-7,2′-dimethoxyflavanone] | > 100 | > 100 | > 100 | 97.6 | > 100 |  |  |  |  |  | reduced or no inhibitory effects | 
7 | COc1ccccc1-c1coc2cc(O)c(OC)c(O)c2c1=O [Compound 8, 5,7-Dihydroxy-6,2′-dimethoxyisoflavone] | > 100 | > 100 | > 100 | > 100 | > 100 |  |  |  |  |  | reduced or no inhibitory effects | 
8 | COc1cc2occ(-c3ccccc3OC3OC(CO)C(O)C(O)C3O)c(=O)c2c(O)c1OC [Compound 9, 5-Hydroxy-6,7-dimethoxyisoflavone-2′-O-β-D-glucopyranoside] | > 100 | > 100 | > 100 | > 100 | > 100 | - | - | - | 13 | selective activity | completely not effective | 
9 | CC[C@H](CC[C@@H](C)[C@H]1CC[C@H]2[C@@H]3CC=C4C[C@@H](O)CC[C@]4(C)[C@H]3CC[C@]12C)C(C)C [Compound 12, β-Sitosterol] |  |  | > 100 |  |  |  |  |  |  |  | neither an antiproliferative effect nor a cytotoxicity | CC50 at 72 h [1]: > 100 µM; GI50 ([2]; Homo sapiens, THP-1, 72 h, read-out: Antiproliferative Effect, GI50 (CI 95%)): > 100 µM; GI50 ([4]; K562, 72 h): > 100 µM; GI50 ([5]; Homo sapiens, A549, 72 h, read-out: Antiproliferative Effect, GI50 (CI 95%)): > 100 µM
10 | COc1cccc2c1C(=O)c1c(O)c3c(c(O)c1C2=O)C[C@@](O)(C(=O)CO)C[C@@H]3O[C@H]1C[C@H](N)[C@H](O)[C@H](C)O1 [Doxorubicin, reference compound] | 0.48 |  | 0.13 | 0.13 |  |  |  |  |  |  |  | 
11 | Cc1ccc(NC(=O)c2ccc(CN3CCN(C)CC3)cc2)cc1Nc1nccc(-c2cccnc2)n1 [Imatinib, imatinib, reference compound] | 78.6 |  | 22.1 | 0.2 |  |  |  |  |  |  |  | 
